# Measured values: the NIST ThermoML archive (doi:10.1016/j.jct.2011.02.005)
# Numbers after ± are expanded uncertainties.
# Assay: mn = molality of the nth substance listed, in mol/kg
# Details: 298.15 K, 101 kPa, Liquid, Vibrating tube method
SMILES,mass density (m1 = 0.0499),mass density (m1 = 0.1004),mass density (m1 = 0.1501),mass density (m1 = 0.2),mass density (m1 = 0.2492),mass density (m1 = 0.2995),mass density (m1 = 0.3512),mass density (m1 = 0.3991),mass density (m1 = 0.4485),mass density (m1 = 0.5013),mass density (m1 = 0.5509),mass density (m1 = 0.5987),mass density (m1 = 0.1998),mass density (m1 = 0.35),mass density (m1 = 0.4985),mass density (m1 = 0.6496),mass density (m1 = 0.7999),mass density (m1 = 0.95)
O=C(O)CNCC(=O)O [N-(carboxymethyl)glycine] + O,1000.08 ± 0.064 kg/m3,1002.85 ± 0.065 kg/m3,1005.55 ± 0.066 kg/m3,1008.22 ± 0.067 kg/m3,1010.83 ± 0.068 kg/m3,1013.46 ± 0.069 kg/m3,1016.13 ± 0.07 kg/m3,1018.57 ± 0.071 kg/m3,1021.04 ± 0.072 kg/m3,1023.68 ± 0.074 kg/m3,1026.15 ± 0.075 kg/m3,1028.49 ± 0.076 kg/m3,,,,,,
OC[C@@H](O)[C@H](O)[C@@H](O)CO [xylitol] + O,,,,,,,,,,,,,1006.8 ± 0.067 kg/m3,1013.81 ± 0.07 kg/m3,1020.47 ± 0.073 kg/m3,1027.38 ± 0.077 kg/m3,1033.72 ± 0.08 kg/m3,1039.84 ± 0.084 kg/m3
